Measured values taken from patent US20160047819A1, “METHOD FOR DIAGNOSING VAGINAL INFECTIONS” (priority 2013, published 2016).

Tested on: vaginal proteome (human proteins in vaginal fluid)
Assay: MS/MS proteomic analysis of vaginal fluid pools, BV-affected women before (BV) and after rifaximin/placebo treatment: human proteins
Assay type: in vivo
Procedure: Proteomic analysis was performed on 9 pools of vaginal isolates, grouped according to the status of the BV infection: • H pool (from 41 healthy women); BV pool (from 39 BV-affected women); • A-R pool (from 2 women who were in remission after rifaximin treatment-group A); • A-N pool (from 8 women who were not in remission after rifaximin treatment-group A); • B-R pool (from 5 women who were in remission after rifaximin treatment-group B); • B-N pool (from 5 women who were not in remission after rifaximin treatment-group B); • C-R pool (from 4 women who were in remission after rifaximin treatment-group C); • C-N (from 5 women who were not in remission after rifaximin treatment-group C); • D-N (from 10 women who were not in remission after placebo treatment-group D). Scheme of the vaginal fluids collected for testing the diagnostic method is represented in FIG. 1.
In these figures are reported the peptides in the fractionated pools of healthy women, women affected by BV and peptides of women treated with rifaximin. The treatment with rifaximin was at dosage of 100 mg/day for 5 days; (remission, A-R; no remission, A-N), 25 mg/5 days (remission, B-R; no remission, B-N), 100 mg/2 days (remission, C-R; no remission, C-N), and placebo for 5 days (D-N). Two types of comparisons were carried out: (i) between fractionated pools of proteins from vaginal fluid of healthy women (HF) versus fractionated pool of proteins from vaginal fluid of women affected by bacterial vaginosis (BVF); (ii) between whole pools of proteins from vaginal fluid of women affected by BV treated by administering different doses of rifaximin or placebo before (BV) and after (A-R, A-N, B-R, B-N, C-R, C-N, D-N) treatment. Fractioned pools of proteins are obtained, e.g., by separating the proteins by separation on membrane filtration with different membrane porosity, prior to MS/MS analysis.
Nine volumes of acetone: HCl (10:1) were added to the supernatant of the vaginal rinsing and proteins were precipitated by centrifuging at 12000 g for 10 min. The protein pellet was dissolved in 1 mL of 70% ethanol and the sample was spun at 12000 g for 10 min. One mL of acetone was added and the proteins were further precipitated by centrifugation at 12000 g for 5 min. After removing supernatant, pellet was dried by SpeedVac concentrator (Thermo Savant ISS110, Thermo Fisher Scientific, Waltham, Mass.) and then stored at −20° C.
Protein extract was quantified using the 2-D Quant Kit (GE Healthcare, Uppsala, Sweden) according to the manufacturer's instructions.
Patients who were diagnosed for BV at the study visit V1 were included in a multicentre, double-blind, randomised, placebo-controlled study (EudraCT: 2009-011826-32), that was performed to compare the efficacy of different doses of rifaximin vaginal tablets versus placebo for the treatment of BV. The patients underwent a randomisation visit and were distributed into 4 treatment groups: group A received 100 mg rifaximin vaginal tablet once daily for 5 days (n=10), group B received 25 mg rifaximin vaginal tablet once daily for 5 days (n=10), group C received 100 mg rifaximin vaginal tablet once daily for the first 2 days and placebo vaginal tablet for the remaining 3 days (n=9), group D received placebo vaginal tablet once daily for 5 days (n=10). Study medication was administered intra-vaginally at bedtime. After 7 to 10 days from the end of the therapy a follow-up visit (V3) was performed. Remission was evaluated at V3 according to Amsel's criteria (<3) and Gram stain Nugent score (≦3) (Table 1).
Standardized vaginal rinsings with 2 mL of saline were collected for analysis at V1 and V3 by flushing and re-aspirating the fluid through a 22 Gauge needle in the left, central and right upper vaginal vaults. The vaginal rinsings were subsequently stored at −80° C. until use.
MS/MS analysis was carried out for H and BV pools and for the whole BV, A-R, A-N, B-R, B-N, C-R, C-N and D-N pools containing 50 μg of protein each. […]

CO[C@H]1/C=C/O[C@@]2(C)Oc3c(C)c(O)c4c(O)c(c5c(nc6cc(C)ccn65)c4c3C2=O)NC(=O)/C(C)=C\C=C\[C@H](C)[C@H](O)[C@@H](C)[C@@H](O)[C@@H](C)[C@H](OC(C)=O)[C@@H]1C [rifaximin]
Ratio X/H Zyxin (Q15942) (pool A-R after treatment): −3.2
Ratio X/H Sciellin (O95171) (pool B-N after treatment): 0.0
Ratio X/H Semenogelin-2 (Q02383) (pool B-N after treatment): −2.3
Ratio X/H Serine protease 27 (Q9BQR3) (pool B-N after treatment): 0.0
Ratio X/H Serine/threonine-protein kinase ULK1 (O75385) (pool B-N after treatment): 0.0
Ratio X/H Serotransferrin (P02787) (pool B-N after treatment): 0.0
Ratio X/H Serpin B3 (P29508) (pool B-N after treatment): 1.8
Ratio X/H Serpin B4 (P48594) (pool B-N after treatment): 1.5
Ratio X/H Serpin B5 (P36952) (pool B-N after treatment): 0.0
Ratio X/H Serpin B6 (P35237) (pool B-N after treatment): 0.0
Ratio X/H Serpin B9 (P50453) (pool B-N after treatment): 0.0
Ratio X/H Serpin B12 (Q96P63) (pool B-N after treatment): −1.8
Ratio X/H Serpin B13 (Q9UIV8) (pool B-N after treatment): 1.5
Ratio X/H Serum albumin (P02768) (pool B-N after treatment): 0.0
Ratio X/H Serum paraoxonase/arylesterase 1 (P27169) (pool B-N after treatment): 1.7
Ratio X/H Small proline-rich protein 3 (Q9UBC9) (pool B-N after treatment): 0.0
Ratio X/H Stanniocalcin-1 (P52823) (pool B-N after treatment): 1.7
Ratio X/H Sulfhydryl oxidase 1 (O00391) (pool B-N after treatment): 0.0
Ratio X/H Superoxide dismutase [Cu—Zn] (P00441) (pool B-N after treatment): 0.0
Ratio X/H Suprabasin (Q6UWP8) (pool B-N after treatment): 7.6
Ratio X/H Syntenin-1 (O00560) (pool B-N after treatment): 2.6
Ratio X/H Talin-1 (Q9Y490) (pool B-N after treatment): 0.0
Ratio X/H Tctex1 domain-containing protein 2 (Q8WW35) (pool B-N after treatment): −25.1
Ratio X/H Teneurin-3 (Q9P273) (pool B-N after treatment): 12.3
Ratio X/H Thioredoxin (P10599) (pool B-N after treatment): 1.5
Ratio X/H Transaldolase (P37837) (pool B-N after treatment): 1.6
Ratio X/H Transmembrane protease serine 11D (O60235) (pool B-N after treatment): −1.6
Ratio X/H Transthyretin (P02766) (pool B-N after treatment): 0.0
Ratio X/H Tumor protein D54 (O43399) (pool B-N after treatment): 0.0
Ratio X/H UTP--glucose-1-phosphate uridylyltransferase (Q16851) (pool B-N after treatment): 0.0
Ratio X/H UV excision repair protein RAD23 homolog B (P54727) (pool B-N after treatment): −1.6
Ratio X/H Versican core protein (P13611) (pool B-N after treatment): −1.7
Ratio X/H Vinculin (P18206) (pool B-N after treatment): 1.5
Ratio X/H Vitamin D-binding protein (P02774) (pool B-N after treatment): −2.0
Ratio X/H Werner syndrome ATP-dependent helicase (Q14191) (pool B-N after treatment): 131.2
Ratio X/H Zinc finger protein 185 (O15231) (pool B-N after treatment): 0.0
Ratio X/H Zinc finger protein 335 (Q9H4Z2) (pool B-N after treatment): 0.0
Ratio X/H Zinc-alpha-2-glycoprotein (P25311) (pool B-N after treatment): 0.0
Ratio X/H Zyxin (Q15942) (pool B-N after treatment): 0.0
Ratio X/H Sciellin (O95171) (pool B-R after treatment): 0.0
Ratio X/H Semenogelin-2 (Q02383) (pool B-R after treatment): 5.9
Ratio X/H Serine protease 27 (Q9BQR3) (pool B-R after treatment): −2.3
Ratio X/H Serine/threonine-protein kinase ULK1 (O75385) (pool B-R after treatment): −4.4
Ratio X/H Serotransferrin (P02787) (pool B-R after treatment): −3.9
Ratio X/H Serpin B3 (P29508) (pool B-R after treatment): 4.3
Ratio X/H Serpin B4 (P48594) (pool B-R after treatment): 0.0
Ratio X/H Serpin B5 (P36952) (pool B-R after treatment): −4.7
Ratio X/H Serpin B6 (P35237) (pool B-R after treatment): 0.0
Ratio X/H Serpin B9 (P50453) (pool B-R after treatment): −5.6
Ratio X/H Serpin B12 (Q96P63) (pool B-R after treatment): −1.9
Ratio X/H Serpin B13 (Q9UIV8) (pool B-R after treatment): 0.0
Ratio X/H Serum albumin (P02768) (pool B-R after treatment): −13.2
Ratio X/H Serum paraoxonase/arylesterase 1 (P27169) (pool B-R after treatment): 0.0
Ratio X/H Small proline-rich protein 3 (Q9UBC9) (pool B-R after treatment): 6.6
Ratio X/H Stanniocalcin-1 (P52823) (pool B-R after treatment): 113.1
Ratio X/H Sulfhydryl oxidase 1 (O00391) (pool B-R after treatment): 1.6
Ratio X/H Superoxide dismutase [Cu—Zn] (P00441) (pool B-R after treatment): −1.5
Ratio X/H Suprabasin (Q6UWP8) (pool B-R after treatment): 15.1
Ratio X/H Syntenin-1 (O00560) (pool B-R after treatment): −3.1
Ratio X/H Talin-1 (Q9Y490) (pool B-R after treatment): −1.6
Ratio X/H Tctex1 domain-containing protein 2 (Q8WW35) (pool B-R after treatment): 4.2
Ratio X/H Teneurin-3 (Q9P273) (pool B-R after treatment): −2.3
Ratio X/H Thioredoxin (P10599) (pool B-R after treatment): 3.1
Ratio X/H Transaldolase (P37837) (pool B-R after treatment): −1.7
Ratio X/H Transmembrane protease serine 11D (O60235) (pool B-R after treatment): 2.6
Ratio X/H Transthyretin (P02766) (pool B-R after treatment): −4.7
Ratio X/H Tumor protein D54 (O43399) (pool B-R after treatment): 2.2
Ratio X/H UTP--glucose-1-phosphate uridylyltransferase (Q16851) (pool B-R after treatment): 0.0
Ratio X/H UV excision repair protein RAD23 homolog B (P54727) (pool B-R after treatment): −2.2
Ratio X/H Uronyl 2-sulfotransferase (Q9Y2C2) (pool B-R after treatment): 2.1
Ratio X/H Versican core protein (P13611) (pool B-R after treatment): 2.6
Ratio X/H Vinculin (P18206) (pool B-R after treatment): 0.0
Ratio X/H Vitamin D-binding protein (P02774) (pool B-R after treatment): −17.8
Ratio X/H Werner syndrome ATP-dependent helicase (Q14191) (pool B-R after treatment): 750.5
Ratio X/H Zinc finger protein 185 (O15231) (pool B-R after treatment): 5.8
Ratio X/H Zinc finger protein 335 (Q9H4Z2) (pool B-R after treatment): −1.6
Ratio X/H Zinc-alpha-2-glycoprotein (P25311) (pool B-R after treatment): −9.4
Ratio X/H Zyxin (Q15942) (pool B-R after treatment): −5.1
